Results: patent US20100111943A1, “COMPOSITIONS AND METHODS FOR INHIBITING CANCER METASTASIS” (Medical College of Georgia Research Institute, Inc, priority 2007, published 2010)
Entries after “also recorded” stand apart in the source; their conditions may differ.

Tests used:
F-hsp90α = assay: Acetylation of F-hsp90α in HEK293 cells (immunoprecipitation, anti-AcK immunoblot); format: cell-based; conditions: HEK293 cells with ectopic expression of FLAG (F)-hsp90α
Description: Following culture in the plates for 24 hours, cells were transfected by Lipofectamine Plus following the protocol provided by Invitrogen (Carlsbad, Calif.). Transfected cells were cultured in full-medium containing drugs dissolved in DMSO or vehicle for 24 hours. Cellular extracts were prepared by directly adding lysis buffer (25 mM Tris-phosphate, pH 7.8, 2 mM DTT, 2 mM 1,2-diaminocyclohexane-N′,N′,N′,N′-tetraacetic acid, 10% glycerol, 0.2% Triton X-100) to the cells on ice. For immuno-precipitations (IP), 2×10^6 cells in 100 mm dishes were transfected and/or treated as described above. Cellular extracts were prepared and immunoprecipitation performed as described 24. For immunoblotting, cellular extracts or immunoprecipitates were separated on SDS-PAGE, transferred to a nitrocellulose membrane, probed with antibodies, and visualized with enhanced chemiluminescence, as described (Chen, Z., et al., Mol. Pharmacol., 69:1527-33 (2006)).
Hsp90 is acetylated both in vitro and in vivo. […] To determine whether p300 acts as the HAT for hsp90α, following incubation with p300 and acetyl-CoA, in vitro translated hsp90α was analyzed for its acetylation status by Western analysis with anti-AcK antibody. p300 was necessary for the acetylation of hsp90α in the in vitro assay. […] In HEK293 cells, it was determined that p300 can be coimmunoprecipitated with hsp90α. […]

hsp90α [1] = target: T1, hsp90α (Homo sapiens, UniProt P07900); assay: Biotinylated-geldanamycin (B-GA) binding assay, MDA-MB-468 cell lysates
T1 construct: acetylation of the endogenous hsp90α due to treatment with LBH589; endogenous in cells; host or cells: MDA-MB-468
Description: (§1) Biotinylated (B)-GA binding to hsp90 was assessed as described previously 26. Briefly, cell-lysates were incubated with or without 17-AAG (Developmental Therapeutics Branch of CTEP/NCI/NIH) for 1 hour at 4° C., and then incubated with B-GA to displace 17-AAG from hsp90 for another 1 h. GM-bound hsp90 was captured by biotin-GA linked to streptavidin Mutein Matrix (Roche Diagnostics, Indianapolis, Ind.) for 1 h at 4° C. The unbound supernatant was removed and the beads were washed three times with lysis buffer. The precipitates were immunoblotted for hsp90.
Cell lysates containing hsp90α and ATP-sepharose were also incubated with B-GA followed by streptavidin coated agarose beads and eluted proteins were analyzed with anti-F antibody. […] MB-468 cells cultured in DMEM medium containing 10% FBS were treated with the indicated concentration of LBH589 for 16 hours. Following this, cell lysates were incubated with B-GA followed by streptavidin coated agarose beads and eluted proteins were analyzed with anti-hsp90α antibody. Acetylation and expression level of endogenous hsp90 were detected with anti-AcK and anti-hsp90 antibody, respectively.
MB-468 cells ectopically expressing F-hsp90α were treated with 100 nM of LBH589 for 16 hours. Following this, equal amount of cell lysates were incubated with 0, 5, 10 or 50 nM of 17-AAG for 30 min at 4° C., followed by incubation with B-GA and streptavidin-coated agarose beads. Precipitates from streptavidin coated beads were analyzed with anti-F antibody.

K/R mutants of hsp90α = assay: B-GA binding assay, HEK293 lysates expressing F-hsp90 K/R substitutions
Description: as §1
Following treatment with either vehicle or 100 nM of LBH, cell lysates from HEK293 cells expressing F-hsp90 or K/R substitutions were incubated with vehicle or 50 nM of 17-AAG followed by incubation with B-GA and streptavidin coated agarose beads. Precipitates from streptavidin coated beads were analyzed with anti-F antibody.

hsp90α [2] = assay: Export and extracellular localization of hsp90α from serum-starved T47D cells (immunoblot of medium); format: cell-based
Excerpt: Previous reports have shown that the inducible isoform hsp90α, but not hsp90β, can be secreted and found on the surface of cancer cells, although it lacks the classical signal sequence (Eustace, B. K., et al., Nat Cell Biol., 6:507-14 (2004); Eustace, B. et al., Cell Cycle., 3:1098-1100 (2004)). […] Concentrated extra-cellular medium or cell lysates from T47D cells, which were either serum-starved or cultured in 10% FBS, were immunoblotted with anti-hsp90α antibody. β-actin served as a loading control. Under starvation, both endogenous and exogenous hsp90α are secreted from T47D cells in the acetylated form. Extra-cellular hsp90α was immunoprecipitated with anti-AcK antibody and immunoblotted with either anti-hsp90α or M2 antibody.
To further verify this, the export and extracellular location of acetylation mimetic (K/Q) or acetylation-resistant (K/R) mutants transfected into T47D cells that were cultured under serum-free condition were determined. In serum-starved T47D cells, K/R substitutions at K69, K100 and K558 decrease, while K/Q substitutions increase the level of extracellular hsp90α. Supernatants of serum starved T47D cells transfected with the F-tagged hsp90α mutant constructs K69Q, K100Q, K292Q, K327Q, K478Q, K546Q, and K558Q were concentrated and immunoblotted with anti-F antibody. Coomassie-stained non-specific proteins served as the loading control. […]

MB-231 cells = assay: In vitro matrigel invasion assay, MB-231 cells; format: cell-based; conditions: 10, 20, 40 nM LBH589 (FIG. 1A)
Description: In vitro invasion assay were performed, as previously described 12, 27 by using the Cultrex® Cell Invasion Assay kit (RandD Systems, Minneapolis, Minn.). In brief, serumstarved cells in 50 μL serum-free medium with or without antibody or IgG were placed in the top chamber and allowed to invade for 24 hours. The lower chambers (assay chamber) were filled with 10% FBS medium. After incubation, migrated cells on the […] chamber of the membrane were dissociated with cell dissociation solution containing Calcein AM at 37° C. for 1 hour and read the bottom plate at 485 nm excitation and 520 nm emission.
The effect of anti-hsp90α with anti-Ac-K69 hsp90α antibody on the in vitro invasiveness of MB-231 breast cancer cells was compared. Serum-starved MB-231 cells treated with 20 μg/mL anti-hsp90α or anti-AcK69 hsp90α antibody were used for determining in vitro matrigel invasion (see Example 4 for protocol). Untreated cells, or cells treated with IgG were used as controls.

[3] = system: acetylated hsp90α with MMP-2; assay: Extracellular co-immunoprecipitation of acetylated hsp90α with MMP-2, MDA-MB-231 supernatant; format: cell-based; conditions: supernatant of serum starved LBH treated MDA-MB-231 cells
Description: Supernatant of serum starved LBH treated MDA-MB-231 cells was concentrated and immunoprecipitates with anti-hsp90α antibody were immunoblotted with anti-AcK, anti-MMP-2 or hsp90α antibody. […] Whether increased extracellular location of K69Q, K100Q or K558Q mutant promotes in vitro invasiveness of breast cancer cells was determined. For this, stable transfectants of MB-468 cells expressing the wild-type hsp90α we created, or the K/Q or K/R mutants of hsp90α at the residues K69, K100 and K558, and their in vitro invasiveness in the matrigel-based assay was evaluated.

acetylated hsp90α = assay: Confocal microscopy of membrane-associated acetylated hsp90α, MB-231 cells; format: cell-based; conditions: serum-starved MB-231 cells, 40 nM LBH589 for 16 hours, anti-Ac-K69 staining
Description: MDA-MB-231 cells were cultured in a chamber slide in RPMI medium with 10% FBS or under serum-free conditions with or without 40 nM LBH589 for 16 hours and stained with anti-acetyl (Ac)-[…] antibody. Briefly, after 16 hours incubation, cells were washed with PBS and fixed with 4% paraformaldehyde for 10 minutes. Following this, the slides were blocked with 3% BSA for 30 minutes and incubated with primary antibody at a dilution of 1:100 in blocking buffer for 2 hours. Following three washes with PBS the slides were incubated in Alexa Fluor 488 anti-rabbit secondary antibody (Molecular probes, Invitrogen) for one hour at 1:3000 dilution. After three washes with PBS, the cells were counterstained with DAPI using Vectashield mountant with DAPI and imaged using Zeiss LSM510 confocal microscope. […] Serum-starved MB-231 cells were treated with 40 nM LBH589 for 16 hours, followed by staining with anti-AcK69 hsp90α antibody and confocal microscopy. Cells cultured in RPMI with 10% FBS and cells stained with rabbit IgG served as controls.

hsp90α [4] = assay: Acetylation of hsp90α in MB-231 cells (immunoblot with anti-AcK69-hsp90α antibody); format: cell-based; conditions: MB-231 cells treated with LBH589
Excerpt: Next, a polyclonal antibody was generated against the acetylated K69-containing peptide of hsp90α (anti-Ac-K69). The specificity of the antibody was confirmed by determining its ability to detect the increase in the acetylation of the ectopically expressed […] hsp90α following treatment with the HDAC inhibitor LBH589. MB-231 cells were transfected with F-hsp90α followed by the treatment with LBH589. Immunoprecipitates of F-hsp90α with anti-M2 conjugated beads were immunoblotted with anti-K69-hsp90α antibody for the acetylation status and anti-F antibody for F-hsp90α expression. Cells transfected with empty vector followed the treatment with LBH589 served as control for specificity. Acetylation of endogenous hsp90αinduced by LBH589 was also detected with anti-AcK69-hsp90α antibody. Immunoprecipitates of endogenous hsp90α with anti-hsp90α antibody from cell lysates of MB-231 cells treated with or without LBH589 were immunoblotted with either anti-AcK69-hsp90α or anti-hsp90α (rabbit) antibody. IgG served as the control for specificity of the immunoprecipitates.

B-GA binding of hsp90α (hsp90α [1]; MDA-MB-468 cells treated with LBH589 for 16 hours) | B-GA binding of K/R mutants of hsp90α (K/R mutants of hsp90α; HEK293 cells, 100 nM LBH) | Compound | acetylation of F-hsp90α (F-hsp90α) | displacement of B-GA binding to hsp90 (hsp90α [1]; lysates incubated with 0, 5, 10 or 50 nM 17-AAG for 30 min at 4° C., cells exposed or unexposed to LBH589) | 17-AAG binding to K/R mutants (displacement of B-GA) (K/R mutants of hsp90α; HEK293 lysates after 100 nM LBH, 50 nM 17-AAG) | 17-AAG binding to acetylated endogenous hsp90 (hsp90α [1]; MDA-MB-468 cells, 100 nM LBH589 for 16 hours, then lysates with 0, 5, 10 or 50 nM 17-AAG) | export and extracellular location of K/R mutants of hsp90α (hsp90α [2]; serum-starved T47D cells transfected with K/R mutants, cotreatment with LBH589) | export and extracellular localization of hyper-acetylated hsp90α (hsp90α [2]; serum-starved T47D cells, 0, 25, 50 or 100 nM LBH589) | matrigel invasion by MB-231 cells (MB-231 cells) | extra-cellular binding of acetylated hsp90α with MMP-2 [3] | levels of membrane associated acetylated hsp90α (acetylated hsp90α) | acetylated hsp90α detected by anti-Ac-K69 hsp90α antibody (hsp90α [4])
– | – | O=C(CCCCCCC(=O)Nc1ccccc1)NO [vorinostat] | hyper-acetylation of F-hsp90α | – | – | – | – | – | – | – | – | –
– | – | 17-allylamino-17-demethoxygeldanamycin [17-AAG] | – | B-GA binding to hsp90 was reduced by 17-AAG treatment | decreased binding of K/R mutants to 17-AAG | – | – | – | – | – | – | –
increase in B-GA binding of hsp90α | increased binding to B-GA | Cc1[nH]c2ccccc2c1CCNCc1ccc(/C=C/C(=O)NO)cc1 [LBH589] | hyper-acetylation of F-hsp90α | – | – | promoted 17-AAG binding to the acetylated endogenous hsp90 | increased the export and extracellular location of K/R mutants of hsp90α to a variable extent; also recorded: promote extracellular localization of K/R mutants of hsp90α | promoted and increased the export and extracellular localization of hyper-acetylated hsp90α; also recorded: occurs in a dose dependent manner | dose dependently increased matrigel invasion | increased extra-cellular binding of acetylated hsp90α with MMP-2 | increased levels of the membrane associated acetylated hsp90α | increase in the acetylated hsp90α
